Measurements taken from patent publication US20210196766A1, “DESIGNED BACTERIAL COMPOSITIONS AND USES THEREOF” (Seres Therapeutics, Inc., priority 2019, published 2021).
Read-outs that look alike come from different tables or passages of the source.

Key:
[1] = system: HDAC enzymes (HeLa nuclear extract); assay: HDAC inhibition assay of bacterial supernatants (HDAC-Glo I/II, HeLa nuclear extract); format: biochemical
[2] = system: primary human colon epithelial cell monolayer; assay: Primary epithelial cell monolayer barrier integrity assay (IFN-γ, FITC-dextran); settings: for restoration of barrier integrity in the presence of IFN-γ: metabolites, starting at a concentration of about 5 mM
Procedure: The assays were performed using a primary epithelial cell monolayer barrier integrity assay. […] The addition of interferon-gamma (IFN-γ) disrupts the tight junctions of the epithelial monolayer and induces apoptosis of epithelial cells. The leakiness of the membrane can be assessed by adding FITC-dextran to the apical side of the apparatus and measuring how rapidly it can pass to the basolateral compartment. A leaky monolayer will allow FITC-dextran to the basal side of the apparatus more quickly than a monolayer with an intact monolayer.
Briefly, the barrier integrity assay was conducted as follows. […] Colon organoids were harvested and trypsinized into a suspension containing few cell clusters and seeded onto Matrigel coated transwell inserts (Corning) at a density of 100,000 cells per insert in 50% L-WRN medium supplemented with 10 μM Y-27632 (Millipore Sigma). […] These primarily stem cell population was differentiated into colonocytes by switching the culture medium to 5% L-WRN for 48 hours. After 24 hours of differentiation, specific SCFA or 5% bacterial culture supernatant treatments were added to apical interface in 100 μL of 5% L-WRN medium and 5-25 ng/ml INFγ (Peprotech), depending on the experiment, was added in 175 μL of 5% L-WRN medium to the basolateral interface and incubated for 48 hours at 37° C. After the 48 hour incubation, colonic epithelial monolayer permeability was assessed by adding 10 μL of 10 ng/ml FITC-Dextran (4 kDa, Sigma) to the apical interface, the organoids were incubated for 1 hour and then 100 μL of medium was collected from the basolateral compartment of each transwell and transferred to a 96 well plate for fluorescence detection.

[3] = system: HT29 cells; assay: Anti-inflammatory assay in IECs: TNF-α-driven IL-8 secretion by HT29 cells; format: cell-based, human; settings: metabolites
[4] = GC-MS of short-, medium- and branched-chain fatty acids in supernatants; settings: single strain supernatants
Source text: FIG. 18 provides a table listing bacterial species and the short chain fatty acids (SCFAs), medium chain fatty acids (MCFAs), and branched chain fatty acids (BCFAs) produced by each of the species. […] The limit of detection for each of the fatty acids is provided in the row labeled “Limit of Detection (LOD).” The SCFAs measured included: acetic acid, propanoic acid, and butanoic acid. The MCFAs measured included: pentanoic acid, hexanoic acid, heptanoic acid. The BCFAs measured included: 2-methyl-propanopic acid, 3-methyl-butanoic acid, and 4-methyl-pentaoic acid.
As described supra, certain tryptophan (Trp) metabolites were associated with remission in patients treated with an HHSP. Accordingly, Applicant tested various bacterial species for the presence of SCFA or tryptophan metabolites in their supernatants. The presence of the tryptophan metabolites was determined using a colorimetric assay for detection of indolic compounds (Indole Reagent, Anaerob Systems). Indole produces a light blue color in this assay, while other Trp metabolites produce purple color. The presence of SCFAs were tested using the HDAC assay (described supra). Supernatants of selected strains that were identified as producers of Trp metabolites by the colorimetric indole assay, and/or producers of SCFAs by the HDAC assay were further analyzed by GC-MS to identify the specific metabolites produced.

## Clostridium tertium
[1]
  HDAC cluster assignment: 5

## Clostridium sp 7 2 43FAA
[1]; pattern of HDAC inhibition across nutrient sources
  HDAC cluster assignment: 5
[1]; supernatants of strains grown in PY medium with one of seven C sources at 0.5%
  HDAC Inhibition in any C source (25/18% cutoff): 1 (If a strain exhibits HDACi activity of at least 0.25 in any nutrient, or 0.18 in fucose, it is considered to have HDACi activity and it is marked with “1”)

## CCCC(=O)O [butyrate]
[2]; 5 mM, positive control
  decrease of permeability: 50%

## Parabacteroides distasonis
[1]
  HDAC cluster assignment: 3

## Clostridium disporicum
[1]
  HDAC cluster assignment: 0

## CC(=O)O [acetate]
[3]
  TNF-α-dependent IL-8 secretion: reduced levels of TNF-α-dependent IL-8 secretion

## CCC(=O)O [propionate]
[2]
  restoration of barrier integrity in the presence of IFN-γ: restored barrier integrity
[3]
  TNF-α-dependent IL-8 secretion: reduced levels of TNF-α-dependent IL-8 secretion

## Clostridium glycolicum
[4]
  hexanoate production: Hexanoate producing

## O=C(O)CCc1c[nH]c2ccccc12 [3-indolepropionic acid]
[2]
  restoration of barrier integrity in the presence of IFN-γ: restored barrier integrity

## Clostridium mayombei
[1]
  HDAC cluster assignment: 2

## Clostridium clostridioforme
[1]
  HDAC cluster assignment: 6
